Laboratory results from patent publication US10807944B2, “HDAC inhibitor compounds and methods of treatment” (priority 2014, dated 2020).

Experiments:
HDAC5 = HDAC5 (Homo sapiens (Human), UniProt Q9UQL6); experiment: HDAC5 in vitro inhibition, dose response; assay type: biochemical; conditions: Table 1; read-out: Inhibitory Potency (IC50) HDAC 5
[1] = test system: NCI-60 panel of cancer cell lines; experiment: NCI-60 panel of cancer cell lines, cell growth; assay type: cell-based; conditions: all tested cell lines

HDAC5, sequence (Q9UQL6 whole entry): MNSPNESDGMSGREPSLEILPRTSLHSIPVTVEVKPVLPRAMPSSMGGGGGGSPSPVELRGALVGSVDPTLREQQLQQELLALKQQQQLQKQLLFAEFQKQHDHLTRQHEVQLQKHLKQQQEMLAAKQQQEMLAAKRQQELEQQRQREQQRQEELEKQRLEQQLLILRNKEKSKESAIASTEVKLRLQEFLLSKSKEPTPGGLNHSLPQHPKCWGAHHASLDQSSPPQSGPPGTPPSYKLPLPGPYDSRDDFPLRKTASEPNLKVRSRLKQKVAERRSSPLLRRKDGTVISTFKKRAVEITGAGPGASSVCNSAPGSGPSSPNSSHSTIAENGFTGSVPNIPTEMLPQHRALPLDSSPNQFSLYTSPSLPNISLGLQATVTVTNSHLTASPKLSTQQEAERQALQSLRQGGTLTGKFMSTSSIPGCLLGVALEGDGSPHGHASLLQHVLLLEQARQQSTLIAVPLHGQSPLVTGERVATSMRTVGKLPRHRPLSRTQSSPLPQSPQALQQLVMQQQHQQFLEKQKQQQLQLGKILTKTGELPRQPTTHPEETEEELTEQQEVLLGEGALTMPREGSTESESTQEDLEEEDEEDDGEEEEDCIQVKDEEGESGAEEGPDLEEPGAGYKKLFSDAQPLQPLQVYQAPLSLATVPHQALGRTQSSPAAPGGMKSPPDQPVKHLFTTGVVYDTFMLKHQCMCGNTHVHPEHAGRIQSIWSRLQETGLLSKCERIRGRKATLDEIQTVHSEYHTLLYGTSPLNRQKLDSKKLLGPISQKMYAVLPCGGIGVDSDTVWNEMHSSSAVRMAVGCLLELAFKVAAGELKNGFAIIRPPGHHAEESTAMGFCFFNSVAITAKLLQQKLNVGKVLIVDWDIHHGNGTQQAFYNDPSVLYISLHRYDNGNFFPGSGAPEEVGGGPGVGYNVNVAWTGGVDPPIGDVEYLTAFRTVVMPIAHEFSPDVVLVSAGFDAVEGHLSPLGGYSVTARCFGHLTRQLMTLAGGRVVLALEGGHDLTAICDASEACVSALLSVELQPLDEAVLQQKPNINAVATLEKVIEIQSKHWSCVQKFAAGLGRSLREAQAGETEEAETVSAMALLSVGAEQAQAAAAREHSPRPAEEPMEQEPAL

For `CCCCNNC(=O)c1ccc(Br)cc1` [UF010, 4-bromo-N′-butylbenzohydrazide], the IC50 (HDAC5) was over 100 µM and the “inhibition of proliferation, NCI-60 panel” value [1] was “inhibited proliferation of all tested cell lines”.
